Source: PubChem BioAssay (NCI)
Values joined by “and” are separate entries in the source; they are usually repeats but may differ in a detail not shown here. Equal entries are not always repeated.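 The compound was tested at five concentrations on cells cultured in 96-well plates, with a 48-hour exposure period. At the GI50, growth is halved. TGI marks complete inhibition of growth.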

How the values were obtained:
Assay in all cases: NCI anticancer screen, dose series, 48 h
[1] = tested on: A498 renal
[2] = tested on: MDA-MB-435
[3] = tested on: LOX IMVI melanoma
[4] = tested on: SW-620 colon
[5] = tested on: M14 melanoma
[6] = tested on: NCI-H23 lung
[7] = tested on: 786-0 renal
[8] = tested on: SR leukemia
[9] = tested on: SK-OV-3 ovarian
[10] = tested on: SNB-75 CNS

In the case of `CCc1c2c(nc3cc4c(cc13)OCO4)-c1cc3c(c(=O)n1C2)COC(=O)[C@]3(O)CC`, the GI50 [1] was 0.0097 µM and 0.0397 µM, the TGI [1] was 0.428 µM and 0.834 µM and the GI50 [2] was 0.0182 µM and 0.0961 µM. For the same molecule, the TGI [2] was over 100 µM, the GI50 [3] was 0.00197 µM and the TGI [3] was 0.122 µM and 0.52 µM. It also gave a TGI [4] of over 100 µM, a GI50 [5] of under 0.001 µM and a TGI [5] of over 100 µM. The GI50 [6] was 0.00263 µM, the TGI [6] was 1.08 µM and the TGI [7] was over 100 µM. For the same molecule, the GI50 [8] was under 0.001 µM.

With `O=c1cc(-c2cccc(F)c2)[nH]c2cc3c(cc12)OCO3` the GI50 [9] was 0.265 µM, the TGI [9] was 1.01 µM and 1.03 µM and the TGI [1] was over 9.41 µM. The TGI [2] was 0.0211 µM, the GI50 [3] was 0.326 µM and the TGI [3] was 6.4 µM and > 54.4 µM. The TGI [4] was over 100 µM, the GI50 [5] was 0.286 µM and the TGI [5] was 75 µM and 23.8 µM. The TGI [6] was 2.43 µM and 2.83 µM, the GI50 [7] was 0.346 µM and the TGI [7] was 75 µM and 17.7 µM.

Molecule `O=c1[nH]c2ccccc2cc1C(Cl)=C(Cl)Cl` has a TGI [9] of over 100 µM, a TGI [1] of over 100 µM and a TGI [10] of over 100 µM. The TGI [3] was over 100 µM, the TGI [4] was over 100 µM and the TGI [5] was over 100 µM. For the same molecule, the TGI [6] was over 100 µM, the TGI [7] was over 100 µM and the TGI [8] was over 100 µM.

Work on `Cc1nn(-c2ccc(S(=O)(=O)[O-])cc2)c([O-])c1N=[N+](C)c1ccc(-c2ccc(N=Nc3ccc4c(S(=O)(=O)[O-])cc(S(=O)(=O)[O-])c(N)c4c3[O-])c([O-])c2)cc1[O-].[Cu+2].[Cu+2].[Na+]` yielded a GI50 [9] of over 100 µM, a TGI [9] of over 100 µM and a GI50 [1] of over 100 µM. The TGI [1] was over 100 µM, the GI50 [2] was over 100 µM and the TGI [2] was over 100 µM. It also gave a GI50 [10] of over 100 µM, a TGI [10] of over 100 µM and a GI50 [4] of over 100 µM. The TGI [4] was over 100 µM, the GI50 [5] was over 100 µM and the TGI [5] was over 100 µM. It also gave a GI50 [6] of over 100 µM, a TGI [6] of over 100 µM and a GI50 [7] of over 100 µM. For the same molecule, the TGI [7] was over 100 µM, the GI50 [8] was over 100 µM and the TGI [8] was over 100 µM.

With `CCOC(=O)CC1=Nc2ccccc2SC1` the TGI [1] was over 100 µM, the TGI [10] was over 100 µM and the TGI [3] was over 100 µM. For the same molecule, the TGI [4] was over 100 µM, the TGI [5] was over 100 µM and the TGI [6] was over 100 µM. For the same molecule, the TGI [7] was over 100 µM.

`COc1cc2c(c3c1C=CCO3)C(=O)c1ccccc1C2=O` was tested, and the TGI [9] was over 100 µM, the TGI [10] was over 100 µM and the TGI [3] was 78.6 µM. It also gave a TGI [4] of 97.9 µM, a TGI [5] of over 100 µM and a TGI [6] of over 100 µM. It also gave a TGI [7] of over 100 µM and a TGI [8] of over 100 µM.

For `C=CCSC[C@H](NC(=O)COc1ccccc1)C(=O)NC(C(=O)OCc1ccc([N+](=O)[O-])cc1)=C(C)C`, the TGI [9] was over 100 µM, the TGI [1] was over 100 µM and the TGI [10] was over 100 µM. It also gave a TGI [3] of over 100 µM, a TGI [5] of over 100 µM and a TGI [7] of over 100 µM.

Molecule `C=C1C(O)C2CCC(C)(C)C(=O)C2=C(CC(C)C)C12CC2` (configuration not stated) has a GI50 [9] of over 100 µM, a TGI [9] of over 100 µM and a GI50 [2] of 67.4 µM. It also gave a TGI [2] of over 100 µM, a GI50 [10] of 93.1 µM and a TGI [10] of over 100 µM. It also gave a GI50 [3] of 68.5 µM, a TGI [3] of over 100 µM and a GI50 [4] of 42 µM. The TGI [4] was over 100 µM, the GI50 [5] was 80.8 µM and the TGI [5] was over 100 µM. For the same molecule, the GI50 [6] was 66.7 µM, the TGI [6] was over 100 µM and the GI50 [7] was over 100 µM. The TGI [7] was over 100 µM, the GI50 [8] was 34 µM and the TGI [8] was over 100 µM.

With `C=CC1=CSNN1` the TGI [9] was over 100 µM, the TGI [1] was over 100 µM and the TGI [10] was over 100 µM. The TGI [3] was over 100 µM, the TGI [4] was over 100 µM and the TGI [5] was over 100 µM. The TGI [6] was over 100 µM and the TGI [7] was over 100 µM.

With `COC(=O)C1OC(O[C@H]2CCC3(C)C(CCC4(C)C3CC=C3C5CC(C)(C)CCC5(C(=O)O)CC[C@]34C)C2(C)C)C(O)C(OC2OC(CO)C(O)C(O)C2O)C1O` (some centres not stated) the GI50 [2] was 13.3 µM, the TGI [2] was over 33.3 µM and the GI50 [3] was 6.27 µM. It also gave a TGI [3] of 11.7 µM, a GI50 [4] of 7.28 µM and a TGI [4] of 16.7 µM. It also gave a GI50 [5] of 6.22 µM, a TGI [5] of 11.5 µM and a GI50 [6] of 6.46 µM. The TGI [6] was 11.9 µM, the GI50 [7] was 6.36 µM and the TGI [7] was 11.6 µM.

With `COc1c(C2CC(=O)Nc3c2cnn3Cc2ccco2)cc2c(c1OC)OCO2` (configuration not stated) the GI50 [9] was 0.858 µM, the TGI [9] was over 24.9 µM and the GI50 [1] was 0.21 µM. The TGI [1] was 0.932 µM, the GI50 [10] was 0.295 µM and the TGI [10] was over 100 µM. The GI50 [3] was 0.864 µM, the TGI [3] was over 100 µM and the GI50 [4] was 0.385 µM. The TGI [4] was over 100 µM, the GI50 [5] was 0.408 µM and the TGI [5] was over 100 µM. For the same molecule, the GI50 [6] was 0.674 µM, the TGI [6] was over 100 µM and the GI50 [7] was 0.917 µM. For the same molecule, the TGI [7] was over 100 µM, the GI50 [8] was 0.437 µM and the TGI [8] was over 100 µM.

Work on `Cn1cc(NC(=O)c2cc(NC(=O)CCCCCCCCCCC(=O)Nc3cc(C(=O)Nc4cc(C(=O)NCCC(=N)N)n(C)c4)n(C)c3)cn2C)cc1C(=O)NCCC(=N)N` yielded a TGI [9] of over 100 µM, a TGI [10] of over 100 µM and a TGI [3] of over 100 µM. It also gave a TGI [4] of 55 µM, a TGI [5] of over 100 µM and a TGI [6] of over 100 µM. For the same molecule, the TGI [7] was over 100 µM.

Work on `CSC1=NC=CCN1C` yielded a TGI [9] of over 100 µM, a TGI [1] of over 100 µM and a TGI [10] of over 100 µM. For the same molecule, the TGI [3] was over 100 µM, the TGI [4] was over 100 µM and the TGI [5] was over 100 µM. For the same molecule, the TGI [6] was over 100 µM and the TGI [7] was over 100 µM.

In the case of `CCCCCCCCCCCCCCCC(=O)NCC(COP(=O)([O-])OCC[N+](C)(C)C)OCC` (configuration not stated), the TGI [9] was 42.6 µM, the TGI [10] was 23 µM and the TGI [3] was 34.4 µM. For the same molecule, the TGI [4] was 27.4 µM, the TGI [5] was 24.7 µM and the TGI [6] was 39.3 µM. For the same molecule, the TGI [7] was 5.82 µM and the TGI [8] was 18.6 µM.

`O=C(Nc1cccc(-n2ccc3c(NC(=O)c4ccccc4)nccc32)c1)c1cccc(C(F)(F)F)c1` was tested, and the GI50 [9] was 0.0331 µM, the TGI [9] was 15.1 µM and the GI50 [1] was 0.02 µM. For the same molecule, the TGI [1] was 0.0772 µM, the GI50 [2] was 0.0172 µM and the TGI [2] was 0.043 µM. For the same molecule, the GI50 [3] was 0.0838 µM, the TGI [3] was 2.78 µM and the GI50 [4] was 0.0411 µM. It also gave a TGI [4] of 13.4 µM, a GI50 [6] of 0.0685 µM and a TGI [6] of over 46.2 µM. The GI50 [7] was 0.0645 µM, the TGI [7] was 1.9 µM and the GI50 [8] was 0.0284 µM.

In the case of `C1COCCN1.C1COCCN1.N.N.[Cl-].[Pt+2]`, the GI50 [10] was over 100 µM, the TGI [10] was over 100 µM and the GI50 [3] was over 100 µM. For the same molecule, the TGI [3] was over 100 µM, the GI50 [4] was over 100 µM and the TGI [4] was over 100 µM. For the same molecule, the GI50 [5] was over 100 µM, the TGI [5] was over 100 µM and the GI50 [6] was over 100 µM. It also gave a TGI [6] of over 100 µM, a GI50 [7] of over 100 µM and a TGI [7] of over 100 µM. It also gave a GI50 [8] of over 100 µM and a TGI [8] of over 100 µM.

`CCCCCCCCCCCCC(=O)OC(c1cnco1)c1nc(C(O)CC(O)C(O)C(C)O)co1` (configuration not stated) gave a GI50 [9] of 4.64 µM, a TGI [9] of over 100 µM and a TGI [1] of over 100 µM. For the same molecule, the GI50 [10] was 2.91 µM, the TGI [10] was 15.9 µM and the GI50 [3] was 0.735 µM. The TGI [3] was over 42.4 µM, the GI50 [4] was 0.566 µM and the TGI [4] was over 62.7 µM. For the same molecule, the GI50 [5] was 0.794 µM, the TGI [5] was over 63.8 µM and the GI50 [6] was 1.23 µM. It also gave a TGI [6] of 25 µM, a GI50 [7] of 1.02 µM and a TGI [7] of over 100 µM. The GI50 [8] was 0.337 µM and the TGI [8] was 2.5 µM.

`N#CC1(c2nc3ccccc3o2)C(=O)C(=O)N(C2C3CC4CC(C3)CC2C4)C(=O)C1=O` (configuration not stated) was tested, and the TGI [9] was over 100 µM, the TGI [1] was over 100 µM and the TGI [10] was over 100 µM. The TGI [3] was over 100 µM, the TGI [4] was over 100 µM and the TGI [5] was over 100 µM. It also gave a TGI [6] of over 100 µM, a TGI [7] of over 100 µM and a TGI [8] of over 100 µM.
